Source: patent US20010014699A1, “Benflumetol derivatives, intermediates thereof and their use against parasitical protozoa and trematodes” (priority 1998, published 2001)
Like-named read-outs stand apart in the source and are kept apart here.

Assays:
[1] = test system: Plasmodium falciparum isolates; assay: WHO Standard Microtest, inhibition of schizont maturation in vitro; assay type: cell-based; details: for power ratio (PR) between benflumetol and the compound: Litchfield & Wilcoxon comparison; for efficacy compared with benflumetol (in words): Plasmodium falciparum in vitro; for inhibition at 0.003 µM: 3.0 nmol/l; for inhibition at 0.01 µM: 10.0 nmol/l; for inhibition at 0.03 µM: 30.0 nmol/l; for inhibition at 0.1 µM: 100.0 nmol/l; for inhibition at 0.3 µM: 300.0 nmol/l; for inhibition at 1 µM: 1000.0 nmol/l; for inhibition at 3 µM: 3000.0 nmol/l; for EC50: probit analysis, 95% confidence limits
Procedure: The study is carried out in Mae Sot, a province in north-west Thailand close to Myanmar. […] The test for efficacy is carried out with blood samples obtained by finger pricks (in accordance with the WHO Standard Microtest Method for studying the inhibition of schizont maturation, see Wemsdorfer, W. H., and Payne, D. (1988), Drug Sensitivity Tests. In: Wemsdorfer, W. H., and McGregor, I. A. (Editors), Malaria: Principles and practice of malariology; Churchill Livingstone, Edinburgh). The tests are carried out in parallel with benflumetol and the 2-alkylamino-1-[2,7-dichloro-9-(4-chlorobenzylidene]-9H-fluoren-4-yl)ethanols in concentrations between 3 and 3000 nmol/l in blood medium mixture (BMM) using materials from the WHO Standard Test Kit supplied by the WHO Regional Office for the Western Pacific, Manila, except for the predosed microtitre plates, which are prepared in the laboratory of the institute of Specific Prophylaxis and Tropical Medicine, University of Vienna, Austria.
The procedure for determining parasitaemia before incubation follows the WHO Standard Method (WHO (1991), Basic malaria microscopy. Part I; WHO, Geneva). The schizont titres are determined as described in Wemsdorfer and Payne (1988) (see above).
The statistical analysis of the data was carried out according to log-concentration/response probit analysis (Litchfield & Wilcoxon (1949), J. Exp. Pharmacol. 89, 99-113). This method is based on the least-squares procedure and is the most widely accepted method for the analysis of dose-response studies. A computer adaptation of the method (Wernsdorfer & Wernsdorfer, Mitteilungen der Österreichischen Gesellschaft für Tropenmedizin und Parasitologie 17, 221-228) is used for data processing.

[2] = cited from earlier work
[3] = taken with foods having a high fat content; cited from earlier work
[4] = cited from earlier work; remark: listed apart in the source
[5] = Plasmodium falciparum, 34-isolate test series (Examples 6.2 and 6.3)
[6] = Plasmodium falciparum, 34-isolate test series (Examples 6.2 and 6.3), read-out: EC50: mean value
[7] = Plasmodium falciparum, 58 isolates (Example 6.1)

Compound | concentration at which none of the isolates shows schizont maturation ([1]; 34 isolates) | power ratio (PR) between benflumetol and the compound ([1]; 34 isolates) | efficacy compared with benflumetol (in words) [1] | inhibition at 0.003 µM [1, 5] | inhibition at 0.01 µM [1, 5] | inhibition at 0.03 µM [1, 5] | inhibition at 0.1 µM [1, 5] | inhibition at 0.3 µM [1, 5] | inhibition at 1 µM [1, 5] | inhibition at 3 µM [1, 5] | EC50 [1, 6] | isolates completely inhibited ([1]; at 100 nml/l, 34 isolates) | other results
CNCC(O)c1cc(Cl)cc2c1-c1ccc(Cl)cc1C2=Cc1ccc(Cl)cc1 (stereo not shown) [5a, 2-Methylamino-1-[2,7-dichloro-9-(4-chlorobenzylidene)-9H-fluoren-4yl]ethanol] | 1000 nmol/L | 2.8898 | about four times as effective as benflumetol | 13.1% | 51.9% | 83.1% | 95.8% | 97.1% | 100% | 100% | 10.5 nM | 96% | EC99 of the compound as fraction of that for benflumetol ([1]; 34 isolates): about one fifth
CCCCCNCC(O)c1cc(Cl)cc2c1-c1ccc(Cl)cc1C2=Cc1ccc(Cl)cc1 (stereo not shown) [5c, 2-n-Pentylamino-1-[2,7-dichloro-9-(4-chlorobenzylidene)-9H-fluoren-4yl]ethanol] | 3000 nmol/L | 2.0724 | about five times as effective as benflumetol | 6.83% | 36.4% | 81.2% | 94.8% | 97% | 99.6% | 100% | 14.4 nM | 95% | EC99 of the compound, times lower than that for benflumetol ([1]; 34 isolates): about 4 times
CCN(CC)CCCC(C)Nc1ccnc2cc(Cl)ccc12 (stereo not shown) [Chloroquine] | – | – | – | – | – | – | – | – | – | – | – | – | half-life (in words) ([2]; in vivo): very long half-life
CO[C@H]1O[C@@H]2O[C@@]3(C)CC[C@H]4[C@H](C)CC[C@@H]([C@H]1C)[C@@]24OO3 [artemether, [3R-(3α, 5αβ, 6β, 8αβ, 9α, 10α, 12β,-12aR)]-decahydro-10-methoxy-3,6,9-trimethyl-3,12-epoxy-12H-pyrano[4,3-j]-1,2-benzodioxepin] | – | – | – | – | – | – | – | – | – | – | – | – | half-life ([2]; in plasma): 2 h
CCCCN(CCCC)CC(O)c1cc(Cl)cc2c1-c1ccc(Cl)cc1C2=Cc1ccc(Cl)cc1 (stereo not shown) [benflumetol, 2-(di-n-butylamino)-1-[2,7-dichloro-9-(4-chlorobenzylidene)-9H-fluoren-4-yl]ethanol] | above 3000 nmol/l | – | – | 7.16% | 18.4% | 42.8% | 90.7% | 96.2% | 99.9% | 100% | 28 nM | – | absorption with foods having a high fat content, times higher than in the absence of such fatty foods [3]: up to 16 times; solubility (in words) [4]: not very good; plasma half-life ([2]; in patients): 96 to 140 h; concentration at which none of the isolates shows schizont maturation ([1]; 58 isolates): above 300 nmol/l; inhibition at 0.003 µM [1, 7]: 7.14%; inhibition at 0.01 µM [1, 7]: 20.4%; inhibition at 0.03 µM [1, 7]: 47.2%; inhibition at 0.1 µM [1, 7]: 90.7%; inhibition at 0.3 µM [1, 7]: 99.8%; inhibition at 1 µM [1, 7]: 100%; inhibition at 3 µM [1, 7]: 100%; EC50 ([1]; Plasmodium falciparum, read-out: EC50: mean value (50% inhibition versus controls not given active substance), 58 isolates (Example 6.1)): 24.4 nM; isolates completely inhibited ([1]; at 300 nmol/l, 34 isolates): 96%; isolates completely inhibited ([1]; at 300 nmol/l, 58 isolates): 97%; EC50 ([1]; read-out: EC50: mean value (50% inhibition versus controls not given active substance), 58 isolates (Example 6.1)): 24.4 nM
